The values below come from ChEMBL document CHEMBL3763049, “Discovery of aminoquinazoline derivatives as human A(2A) adenosine receptor antagonists” (Bioorg Med Chem Lett, 2016).

In brackets after ≈: the same amount, converted by molar mass.

The test system of series [1] is Rattus norvegicus. In words: Anti-cataleptic activity in Sprague-Dawley rat assessed as inhibition of haloperidol-induced catalepsy at 1 mg/kg, po administered for 1 hr. The series is classed as functional.
In series [2] the target is Adenosine receptor A2a (Rattus norvegicus, UniProt P30543). In words: Binding affinity to rat A2A adenosine receptor. The settings on record: read-out: Ki.
Series [3] addresses T1, Adenosine receptor A1 (Homo sapiens, UniProt P30542).
T1 sequence (P30542 whole entry): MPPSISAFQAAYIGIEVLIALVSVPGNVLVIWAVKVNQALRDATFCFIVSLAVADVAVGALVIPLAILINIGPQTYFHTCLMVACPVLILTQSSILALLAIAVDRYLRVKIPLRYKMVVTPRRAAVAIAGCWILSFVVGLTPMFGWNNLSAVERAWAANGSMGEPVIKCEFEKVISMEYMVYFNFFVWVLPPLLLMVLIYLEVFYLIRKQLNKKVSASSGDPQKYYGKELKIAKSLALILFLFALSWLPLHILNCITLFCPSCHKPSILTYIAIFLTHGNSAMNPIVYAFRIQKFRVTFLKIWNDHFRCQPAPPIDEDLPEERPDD
In words: Displacement of [3H]DPCPX from human adenosine A1 receptor expressed in CHO cell membranes after 60 mins by microplate scintillation counting analysis. In general terms: Loss of bound radioactivity is the signal in a displacement assay; it reports binding, not function.

For series [4], the target named is Adenosine receptor A2a (Homo sapiens, UniProt P29274). Nature of the series: Displacement of [3H]SCH-58261 from human adenosine A2A receptor expressed in HEK cell membranes after 60 mins by microplate scintillation counting analysis. Further details: species or system HEK293; call rule not given here.
A short description of series [5]: AUC in haloperidol-induced Sprague-Dawley rat cataleptic model at 10 mg/kg, po administered for 1 hr. The series is classed as ADME, organism-based. Particulars: in vivo.
Series [6] concerns the target T2, Cytochrome P450 3A4 (Homo sapiens, UniProt P08684). Nature of the series: Time dependent inhibition of CYP3A4 (unknown origin). The series is classed as ADME.
Series [7] has as its system Rattus norvegicus. Nature of the series: Anti-cataleptic activity in Sprague-Dawley rat assessed as inhibition of haloperidol-induced catalepsy at 10 mg/kg, po administered for 1 hr. The series is classed as functional.
A short description of series [8]: Plasma concentration in haloperidol-induced Sprague-Dawley rat cataleptic model after 1 hr. The series is classed as ADME.
Series [9] can be described thus: Plasma protein binding in human. The series is classed as ADME, cell-free. The settings on record: read-out: PPB (converted).
The target of series [10] is T3, Adenosine receptor A3 (Homo sapiens, UniProt P0DMS8).
T3 sequence (P0DMS8 whole entry): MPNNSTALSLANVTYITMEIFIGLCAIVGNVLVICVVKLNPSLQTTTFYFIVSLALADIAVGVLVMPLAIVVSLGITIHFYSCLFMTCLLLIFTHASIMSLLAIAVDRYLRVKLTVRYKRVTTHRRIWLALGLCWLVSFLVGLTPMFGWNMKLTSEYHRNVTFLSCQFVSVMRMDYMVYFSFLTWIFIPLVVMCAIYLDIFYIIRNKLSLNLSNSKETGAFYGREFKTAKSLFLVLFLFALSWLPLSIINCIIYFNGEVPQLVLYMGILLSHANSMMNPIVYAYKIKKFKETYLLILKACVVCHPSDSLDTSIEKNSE
Nature of the series: Binding affinity to human adenosine A3 receptor.

Series [11] in a line: Permeability of the compound. The series is classed as ADME. The settings on record: not told; read-out: permeability.
The nature of series [12]: Clearance in rat hepatocytes assessed per million cells. The series is classed as ADME, cell-based, Hepatocyte. The settings on record: read-out: CLH.
Series [13] concerns the target T4, Adenosine receptor A2b (Homo sapiens, UniProt P29275).
T4 sequence (P29275 whole entry): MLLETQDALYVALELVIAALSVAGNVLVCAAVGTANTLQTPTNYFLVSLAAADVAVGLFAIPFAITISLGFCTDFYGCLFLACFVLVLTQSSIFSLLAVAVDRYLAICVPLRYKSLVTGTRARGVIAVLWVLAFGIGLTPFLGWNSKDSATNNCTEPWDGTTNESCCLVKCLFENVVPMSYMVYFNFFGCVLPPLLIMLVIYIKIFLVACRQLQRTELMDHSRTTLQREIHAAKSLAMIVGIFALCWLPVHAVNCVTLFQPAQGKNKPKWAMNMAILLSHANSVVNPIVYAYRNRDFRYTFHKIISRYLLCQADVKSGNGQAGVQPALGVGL
Nature of the series: Binding affinity to human adenosine A2B receptor.

Series [14] in a line: Half life in haloperidol-induced Sprague-Dawley rat cataleptic model at 1 to 30 mg/kg, po administered for 1 to 4 hrs. Particulars: in vivo. The series is classed as ADME, organism-based.
Series [15] in a line: Drug uptake in brain of haloperidol-induced Sprague-Dawley rat cataleptic model after 1 hr. The series is classed as ADME, tissue-based. Particulars: read-out: Drug uptake.
In series [16] the test system is Rattus norvegicus. Nature of the series: Anti-cataleptic activity in Sprague-Dawley rat assessed as inhibition of haloperidol-induced catalepsy at 30 mg/kg, po administered for 1 hr. The series is classed as functional.
Series [17] in a line: Clearance in human hepatocytes assessed per million cells. The series is classed as ADME, cell-based, Hepatocyte. The settings on record: read-out: CLH.
Series [18] has as its target T2, Cytochrome P450 3A4. Nature of the series: Time dependent inhibition of CYP3A4 (unknown origin) at 30 uM relative to control. The series is classed as ADME.
Series [19] can be described thus: Solubility of compound at pH 7. The series is classed as physicochemical. The settings on record: buffer.
Series [20] in a line: Plasma protein binding in rat. The series is classed as ADME, cell-free. Particulars: read-out: PPB (converted).

Chain of Adenosine receptor A2a (Rattus norvegicus, UniProt P30543) (P30543 whole entry): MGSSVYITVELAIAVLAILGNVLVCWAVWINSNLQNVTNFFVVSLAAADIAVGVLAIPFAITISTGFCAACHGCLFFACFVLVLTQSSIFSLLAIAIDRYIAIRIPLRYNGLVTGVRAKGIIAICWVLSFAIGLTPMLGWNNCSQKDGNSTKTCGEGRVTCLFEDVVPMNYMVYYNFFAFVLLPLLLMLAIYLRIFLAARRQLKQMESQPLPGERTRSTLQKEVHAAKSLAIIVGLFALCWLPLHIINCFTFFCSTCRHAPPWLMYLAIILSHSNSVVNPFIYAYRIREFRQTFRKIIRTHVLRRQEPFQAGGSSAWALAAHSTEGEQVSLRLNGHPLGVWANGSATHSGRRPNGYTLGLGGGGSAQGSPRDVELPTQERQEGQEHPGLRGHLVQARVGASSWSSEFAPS
T2 sequence (P08684 whole entry): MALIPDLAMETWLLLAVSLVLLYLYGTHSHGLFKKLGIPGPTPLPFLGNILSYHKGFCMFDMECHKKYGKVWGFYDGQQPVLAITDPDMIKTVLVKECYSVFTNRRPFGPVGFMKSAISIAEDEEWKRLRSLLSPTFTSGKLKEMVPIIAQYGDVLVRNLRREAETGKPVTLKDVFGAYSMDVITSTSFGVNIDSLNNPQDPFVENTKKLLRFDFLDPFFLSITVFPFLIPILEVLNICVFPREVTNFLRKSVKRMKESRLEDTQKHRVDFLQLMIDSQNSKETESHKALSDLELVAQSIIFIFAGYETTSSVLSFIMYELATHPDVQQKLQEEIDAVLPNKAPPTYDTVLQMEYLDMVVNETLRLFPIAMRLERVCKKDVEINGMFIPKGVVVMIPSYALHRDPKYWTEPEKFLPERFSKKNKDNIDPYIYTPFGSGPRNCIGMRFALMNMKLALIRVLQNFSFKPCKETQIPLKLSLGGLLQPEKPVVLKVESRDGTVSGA
Chain of Adenosine receptor A2a (Homo sapiens, UniProt P29274) (P29274 whole entry): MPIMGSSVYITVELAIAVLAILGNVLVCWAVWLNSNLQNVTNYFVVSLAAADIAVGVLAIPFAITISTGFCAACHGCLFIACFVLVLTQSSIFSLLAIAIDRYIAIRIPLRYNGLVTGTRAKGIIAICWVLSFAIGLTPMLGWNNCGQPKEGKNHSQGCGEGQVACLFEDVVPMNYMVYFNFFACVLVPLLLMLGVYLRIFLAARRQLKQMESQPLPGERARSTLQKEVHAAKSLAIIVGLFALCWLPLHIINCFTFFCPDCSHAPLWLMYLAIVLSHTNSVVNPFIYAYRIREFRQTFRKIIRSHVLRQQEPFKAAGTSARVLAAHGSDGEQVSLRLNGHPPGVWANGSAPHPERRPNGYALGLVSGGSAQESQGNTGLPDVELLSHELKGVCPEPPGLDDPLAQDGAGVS

In the case of `Nc1nc(C(=O)NCc2cccc3cccnc23)c2cccc(F)c2n1`, in [1], the inhibition in vivo (usually the percentage by which the read-out fell short of the control) at 1 mg/kg is 30%. The inhibition constant (Ki) (in general, a dissociation constant, usually derived from enzyme kinetics or from competition with a known ligand) came to 1.3 nM in series [2], 12 nM in [3] and 0.5 nM in series [4]. Besides, in [5], the exposure (AUC) – broadly, concentration integrated over time – at 1 h was found to be 2.4 µM·h. In [6], the TDI result is “Not Active”. In addition, the inhibition in vivo at 10 mg/kg in series [7] came out at 74%.
Turning to `Nc1nc(C(=O)NCc2cccc3cccnc23)c2ccccc2n1`, the results for the concentration at 1 h in series [8] and in series [15] were 4.2 µM and 3.1 µM, respectively. Also, the fraction unbound is 0.036 in series [9] and 0.045 in series [20]. In addition, the inhibition constant Ki in [10] was determined as 985 nM; in series [2], 11 nM; in series [13] it was 1470 nM; in [3], 90 nM; in [4], 1.1 nM. Moreover, the Papp in series [11] stood at 40 ×10⁻⁶ cm/s. For the same compound, the values for the hepatocyte CLint in series [12] and in [17] were 12.8 µL/min/1e6 cells and 34.8 µL/min/1e6 cells, respectively. For the same compound, the half-life (in general, the time in which the quantity being followed falls by half) in [14] is 30 min. In series [16], the inhibition in vivo at 30 mg/kg is 61%. Besides, in series [5], the AUC at 1 h is 1.6 µM·h. Besides, the “fold change (FC)” value in series [18] is listed as 3. For the same compound, in series [19], the solubility (as a rule, how much of the substance goes into solution per volume) came out at 124 µM (≈ 40.8 µg/mL). Further, in series [7], the inhibition in vivo at 10 mg/kg worked out at 35%.
